The MIC is the lowest concentration found to suppress growth.

What all share (experiment): MIC, two-fold serial dilutions in Malt Agar, synergism by Kull method
Common to all, as to type: cell-based

Experiment [1] deals with Coriolus versicolor. Here is the method: (§1) Each test tube was inoculated to make about 5×10^5 fungi per mil. The lowest concentrations of each compound or mixtures to inhibit visible growth (turbidity) at 30° C. for the fungi for 7 days were taken as the minimum inhibitory concentration (MIC). The MIC were taken as end points of activity. End points for the mixtures of compound A (Guanadine component) and Compound B (second Component microbiocide) were then compared with the end points for the guanadine component A alone and compound B alone. Synergism was determined by a commonly used and accepted method described by Kull, F. C.; Eisman, P. C.; Sylwestrowicz, H. D. and Mayer, R. L. in Applied Microbiology 9:538-541 (1961) using the ratio determined by Qa/QA+Qb/QB==Synergy Index (SI) wherein:
(§2) QA=concentration of compound A in parts per million (ppm), acting alone, which produced an end point.
(§3) Qa=concentration of compound A in ppm, in the mixture which produced an end point.
(§4) QB=concentration of compound B in ppm, acting alone which produced an end point.
(§5) Qb=concentration of compound B in ppm, in the mixture which produced an end point.
(§6) When the sum of Qa/QA and Qb/QB is greater than one, antagonism is indicated.
(§7) The MIC values of each compound tested alone (QA or QB) are end-point activities except where the value is expressed as […]. In these cases, the end-point activity was not seen at the highest tested concentration. For purpose of calculation of the synergy index and for operational definition of MIC, the reported value could be an underestimate of the true MIC; thus the true synergy index could be even lower.

Experiment [2] concerns Penicillium sp. Here is the method: as §1, §2, §3, §4, §5, §6, §7
In experiment [3] the test system is Alternaria sp. Here is the method:
as §1, §2, §3, §4, §5, §6, §7

Experiment [4] concerns Diplodia sp. The settings on record: 30° C., 7 days. Here is the method: as §1, §2, §3, §4, §5, §6, §7
Experiment [5] relates to Ophiostoma sp. Here is the method:
as §1, §2, §3, §4, §5, §6, §7

In experiment [6] the test system is Tyromyces palustris. To be noted: 30° C., 7 days. Here is the method:
as §1, §2, §3, §4, §5, §6, §7

Several values for one entry are separate records, joined by “and”; a condition that tells them apart may be missing. Identical values can stand only once.

With “3-iodo-2-propynylbutyl carbamate [Iodocarb]”, the “QB, end-point activity (MIC) of compound B acting alone” value in experiment [1] (c versicolor, 30° C., 7 days) came out at 16 ppm; in experiment [2] (Penicillium sp, 30° C., 7 days), 4 ppm.
As to `N=C(N)NCCCCCCCCNCCCCCCCCNC(=N)N` [Guazatine, 1,1-iminodi(octamethylene)diguanidine], the “QA, end-point activity (MIC) of compound A acting alone” value in experiment [3] (Alternaria sp, 30° C., 7 days) is 32 ppm; in experiment [1] (c versicolor, 30° C., 7 days), 32 ppm and 64 ppm; in experiment [4] it was 64 ppm; in experiment [5] (Ophiosroma sp, 30° C., 7 days), 1 ppm; in experiment [2] (Penicillium sp, 30° C., 7 days) it was 128 ppm; in experiment [6] (T palustri), 128 ppm.
For the molecule `CCCN(CCOc1c(Cl)cc(Cl)cc1Cl)C(=O)n1ccnc1` [Prochloraz, N-propyl-N-(2-(2,4,6-trichlorophenoxy)ethyl)-imidazole-1-carboximide], the MIC came out at 4 µg/mL in experiment [3] (Alternaria, 168 h, read-out: QB, end-point activity (MIC) of compound B acting alone); 4 µg/mL in experiment [1] (Trametes versicolor, 168 h, read-out: QB, end-point activity (MIC) of compound B acting alone); 2 µg/mL in experiment [5] (168 h, read-out: QB, end-point activity (MIC) of compound B acting alone); 32 µg/mL in experiment [2] (Penicillium, 168 h, read-out: QB, end-point activity (MIC) of compound B acting alone); 64 µg/mL in experiment [6] (168 h, read-out: QB, end-point activity (MIC) of compound B acting alone, T palustri). For the same molecule, the “QB, end-point activity (MIC) of compound B acting alone” value in experiment [6] (T palustri) stood at 128 ppm.

(Values after patent US6342522B1, “Microbiocidal compositions” (priority 1998, dated 2002).)
